Measured values published in patent publication US8071575B2, “Methods and compounds for the targeted delivery of agents to bone for interaction therewith” (priority 2007, dated 2011).
In brackets after ≈: the same amount, converted by molar mass.

Tests used:
[1] = Hydroxyapatite (HA) Binding Assay; conditions: 10^−5 M analyte, 50 mM Tris-HCl pH 7.4, 1% DMSO; adjusted such that tetracycline = 100
Procedure: A Hydroxyapatite (HA) Binding Assay is used to determine whether compounds have an affinity for bone. Compounds of the presently-disclosed subject matter having a Bone Targeting Portion (RT) are studied using the HA Binding Assay. A 10^−3 M solution of each analyte was made in 100% dimethylsulfoxide (DMSO). A 100 fold dilution was then made to form a 10^−5 M solution in 50 mM Tris-HCl buffer, pH 7.4, 1% DMSO. Tetracycline was used as a reference analyte and approximately 50% was adsorbed to HA at the concentration of 10^−5 M. The HA slurry was 0.5 g/100 mL 50 mM Tris-HCl buffer, 1% DMSO.
For each analyte, two samples were prepared. For one sample, 1 mL of 10^−5 M analyte and 100 μL 50 mM Tris-HCl buffer, 1% DMSO was pipetted into a microcentrifuge tube. For the second sample, 1 mL of 10^−5 M analyte and 100 μL of the HA slurry was pipetted into a microcentrifuge tube. The samples were mixed gently by inversion for 4 minutes and then centrifuged at 12,000 g for 3 minutes to sediment the HA contained in those samples. The supernatant was transferred to another microcentrifuge tube.
An electronic spectral scan (ultraviolet-visible) from 220-520 nm was obtained for each analyte using a Varian Cary 300 Bio Scan. The blank was 50 mM Tris-HCl buffer, 1% DMSO. The wavelength of maximum absorbance (λmax) was determined, and the extinction coefficient (ε) was calculated using the Beer-Lambert Law.
The absorbance of the samples incubated with HA was measured at λmax, and the molar concentration of the analyte was then determined using the Beer-Lambert Law and the previously calculated extinction coefficient. The fraction adsorbed to HA for each sample was subsequently calculated.

[2] = test system: SUM1315 human breast cancer cells; test: Anti-cancer effect: cell proliferation (MTT) assay; format: cell-based; conditions: 0.05, 0.1, 0.5, 1, 5, and 10 μM, days 1-6
Text: Anti-Cancer Effect: Cell Proliferation Assay. The colorometric MTT assay is based on the cleavage of a yellow MTT tetrazolium salt to form purple formazan crystals by the mitochondria of metabolically active and viable cells. The formazan crystals are insoluble in aqueous solution but can be dissolved in acid and quantified using a spectrophotometer. The number of living and viable cells in a sample directly correlates to the amount of purple formazan crystals formed. SUM1315 human breast cancer cells were seeded in triplicate in 96 well plates at 1000 cells/well and were allowed to adhere overnight prior to drug treatment. Compounds of the presently-disclosed subject matter including a bone active portion (RA) derived from an anti-cancer agent, or the free anti-cancer agent, were added to the cells at concentrations of 0.05, 0.1, 0.5, 1, 5, and 10 μM and cells were allowed to grow at 37° C. for 1, 2, 3, 4, 5, or 6 days. In addition, untreated and vehicle (0.1% DMSO) treated wells were included at each time point as controls. Following treatment the MTT assay was subsequently performed and the absorbance at 490 nm was recorded. Three independent experiments were performed and the results were averaged.

[3] = test system: SUM1315 human breast cancer cells; test: Anti-cancer effect: colony formation assay; format: cell-based; conditions: 0.05, 0.1, 0.5, 1, 5, and 10 μM, 10 days
Procedure: Anti-Cancer Effect: Colony formation assay. The anti-cancer effect of compounds including a bone active portion (RA) derived from an anti-cancer agent was tested. SUM1315 human breast cancer cells (derived from a clinical metastatic nodule) were seeded in 6 well plates at 5000 cells/well in 2 ml of medium. Cells were allowed to adhere overnight prior to drug treatment. Compounds of the presently-disclosed subject matter including a bone active portion (RA) derived from an anti-cancer agent, or the free anti-cancer agent, were added to the cells at concentrations of 0.05, 0.1, 0.5, 1, 5, and 10 μM and cells were allowed to grow at 37° C. for 10 days. In addition, untreated and vehicle (0.1% DMSO) treated wells were included as controls. After 10 days of treatment, medium was removed from each well and cells were subsequently washed with water. Cells were then fixed in 10% formaldehyde for 10 minutes, washed with water and then stained with 0.5% crystal violet for 5 minutes. Colonies of cells were subsequently counted under the microscope in three separate frames. Three independent experiments were performed and the results are an average of the three experiments. Images were obtained from a representative well for each concentration.

[4] = test system: Staphylococcus aureus ATCC 29213; conditions: ATCC 29213, QC strain, acceptance range; cited from earlier work
[5] = test system: Staphylococcus aureus ATCC 29213; test: MIC, broth microdilution, S. aureus ATCC 29213 (QC strain); format: cell-based; conditions: ATCC29213, read-out: minimum inhibitory concentration (MIC)
Procedure: (§1) Antimicrobial Effect: Minimum Inhibitory Concentration (MIC) of a Test Compound Against Isolates of Staphylococcus aureus. The Minimum inhibitory concentration (MIC) of compounds of the presently-disclosed subject matter including a bone active portion (RA) derived from an antimicrobial agent, and free antimicrobial agents, were determined by Ricerca Biosciences LLC (Concord, Ohio) using the standard in vitro broth microdilution assay (CLSI). Two isolates of S. aureus, one resistant to Methicillin (ATCC 33591) and one nonresistant to Methicillin (ATCC 49230) were used for the evaluation. ATCC 49230 is a clinical isolate from a patient with chronic osteomyelitis. Additionally, a quality control isolate (ATCC 29213) was included in the analysis. Briefly, twelve, serial, one-half dilutions of compounds of the presently-disclosed subject matter including a bone active portion (RA) derived from an antimicrobial agent, and free antimicrobial agents, were prepared in 96-well plates in Mueller Hinton Broth (MHB). The highest concentration of each compound used was 64 μg/mL. Bacterial suspensions were prepared and added to each well at a concentration of approximately 5×10^5 colony-forming-units per milliliter. The inoculated plates were incubated for 16-20 h at 35±1° C. At the completion of incubation, the wells of each plate were evaluated visually for the presence of bacterial growth. […]

[6] = test system: Staphylococcus aureus ATCC 49230; test: MIC, broth microdilution, S. aureus ATCC 49230; format: cell-based; conditions: ATCC49230, read-out: minimum inhibitory concentration (MIC)
Procedure: as §1

[7] = test system: Staphylococcus aureus ATCC 33591; test: MIC, broth microdilution, S. aureus ATCC 33591 (MRSA); format: cell-based; conditions: read-out: minimum inhibitory concentration (MIC)
Procedure: as §1

| Binding Index (binding to hydroxyapatite) [1] | Compound | cell proliferation (MTT) [2] | colony formation [3] | acceptable vancomycin MIC range [4] | MIC [5] | MIC [6] | MIC [7] |
| --- | --- | --- | --- | --- | --- | --- | --- |
| 60 | COc1cccc2c1C(=O)c1c(O)c3c(c(O)c1C2=O)C[C@@](O)(C(=O)CO)C[C@H]3OC1C[C@H](NC(=O)CCCC(=O)NCCOCCOCC(=O)Nc2ccc(OC)c(C(N)=O)c2O)[C@H](O)[C@H](C)O1 (stereo partly shown) [Formula 138] | dose-responsive decrease in cell proliferation | dose-responsive decrease in colony formation | – | – | – | – |
| – | CN[C@H](CC(C)C)C(=O)N[C@H]1C(=O)N[C@@H](CC(N)=O)C(=O)N[C@H]2C(=O)N[C@H]3C(=O)N[C@H](C(=O)N[C@H](C(=O)O)c4cc(O)cc(O)c4-c4cc3ccc4O)[C@H](O)c3ccc(c(Cl)c3)Oc3cc2cc(c3O[C@@H]2O[C@H](CO)[C@@H](O)[C@H](O)[C@H]2O[C@H]2C[C@](C)(N)[C@H](O)[C@H](C)O2)Oc2ccc(cc2Cl)[C@H]1O [vancomycin] | – | – | ^cQC strain: Acceptable vancomycin MIC range: 0.5-2 μg/mL | 1 µg/mL (≈ 0.69 µM) | 1 µg/mL (≈ 0.69 µM) | 1 µg/mL (≈ 0.69 µM) |
